Test results reported in patent US9169254B2, “Spiroimidazolone derivative” (Chugai Seiyaku Kabushiki Kaisha, priority 2009, dated 2015).

These compounds were tested against T1, human PTH1 receptor (Homo sapiens, UniProt Q03431) (assay: In vitro cAMP signal activity in HKRK-B7 cells (LLC-PK1 cells overexpressing the human PTH1 receptor)). Details: HKRK-B7 cells; compound at 1×10^−3 M; cAMP produced as percentage of that produced by hPTH(1-34) at 100 nM.
T1 sequence (Q03431 27-593): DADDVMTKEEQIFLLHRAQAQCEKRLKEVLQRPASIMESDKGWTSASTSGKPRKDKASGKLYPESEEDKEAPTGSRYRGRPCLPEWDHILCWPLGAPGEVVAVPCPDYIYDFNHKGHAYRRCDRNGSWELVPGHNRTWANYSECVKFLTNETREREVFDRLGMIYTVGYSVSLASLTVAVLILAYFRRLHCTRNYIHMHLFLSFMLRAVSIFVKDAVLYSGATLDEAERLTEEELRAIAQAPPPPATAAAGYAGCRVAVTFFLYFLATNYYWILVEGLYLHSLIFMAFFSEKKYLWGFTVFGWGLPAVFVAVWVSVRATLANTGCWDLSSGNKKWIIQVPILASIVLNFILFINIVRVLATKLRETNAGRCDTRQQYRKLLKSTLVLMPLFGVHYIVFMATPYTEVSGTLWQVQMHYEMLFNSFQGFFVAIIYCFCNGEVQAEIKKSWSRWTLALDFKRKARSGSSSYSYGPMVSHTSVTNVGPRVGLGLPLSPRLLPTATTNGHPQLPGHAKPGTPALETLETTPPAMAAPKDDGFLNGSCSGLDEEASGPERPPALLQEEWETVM
Assay type: cell-based

Row | cAMP production activity (%) | Compound
1 | 67% | CC(C)(C)OC(=O)NCc1ccc(CCS(=O)(=O)N2CCC3(CC2)N=C(C2CCCCC2)NC3=O)c(C(F)(F)F)c1 [Compound 272, {4-[2-(2-cyclohexyl-4-oxo-1,3,8-triaza-spiro[4.5]dec-1-ene-8-sulfonyl)-ethyl]-3-trifluoromethyl-benzyl}-carbamic acid tert-butyl ester]
2 | 62% | Cc1cc(C(=O)N(C)C)ccc1CCS(=O)(=O)N1CCC2(CC1)N=C(c1cccc(F)c1)NC2=O [Compound 109, 4-{2-[2-(3-fluoro-phenyl)-4-oxo-1,3,8-triaza-spiro[4.5]dec-1-ene-8-sulfonyl]-ethyl}-3,N,N-trimethyl-benzamide]
3 | 36% | Cc1ccccc1CNS(=O)(=O)N1CCC2(CC1)N=C(C1CCC(C)CC1)NC2=O (stereo not shown) [Compound 1372, 2-(4-Methyl-cyclohexyl)-4-oxo-1,3,8-triaza-spiro[4.5]dec-1-ene-8-sulfonic acid 2-methyl-benzylamide]
4 | 84% | CC[C@H]1CC[C@H](C2=NC3(CCN(S(=O)(=O)CCc4ccc(N)c(Cl)c4C)CC3)C(=O)N2)CC1 [Compound 1293, 8-[2-(4-Amino-3-chloro-2-methyl-phenyl)-ethanesulfonyl]-2-(4-ethyl-cyclohexyl)-1,3,8-triaza-spiro[4.5]dec-1-en-4-one]
5 | 57% | O=C1NC(C2CCCCC2)=NC12CCN(S(=O)(=O)CCc1ccc(CCO)cc1)CC2 [Compound 280, 2-cyclohexyl-8-{2-[4-(2-hydroxy-ethyl)-phenyl]-ethanesulfonyl}-1,3,8-triaza-spiro[4.5]dec-1-en-4-one]
6 | 64% | CCOCC1CCC(C2=NC3(CCN(S(=O)(=O)CCc4ccc(NC(C)=O)cc4C)CC3)C(=O)N2)CC1 (stereo not shown) [Compound 910, N-(4-{2-[2-(4-ethoxymethyl-cyclohexyl)-4-oxo-1,3,8-triaza-spiro[4.5]dec-1-ene-8-sulfonyl]-ethyl}-3-methyl-phenyl)-acetamide]
7 | 59% | Cc1cc(N2C(=O)CNC2=O)ccc1CCS(=O)(=O)N1CCC2(CC1)N=C([C@H]1CCC[C@@H](C)C1)NC2=O [Compound 950, 3-(3-methyl-4-{2-[2-((1S,3R)-3-methyl-cyclohexyl)-4-oxo-1,3,8-triaza-spiro[4.5]dec-1-ene-8-sulfonyl]-ethyl}-phenyl)-imidazolidine-2,4-dione]
8 | 68% | Cc1cc(CN2C(=O)CNC2=O)cc(C)c1/C=C/S(=O)(=O)N1CCC2(CC1)N=C(C1CCC(C)CC1)NC2=O (stereo not shown) [Compound 518, 3-(3,5-dimethyl-4-{(E)-2-[2-(4-methyl-cyclohexyl)-4-oxo-1,3,8-triaza-spiro[4.5]dec-1-ene-8-sulfonyl]-vinyl}-benzyl)-imidazolidine-2,4-dione]

Continued, compound first:

Row | Compound | cAMP production activity (%)
9 | Cc1cc(C(=O)N(C)C)ccc1CCS(=O)(=O)N1CCC2(CC1)N=C(c1ccc(S(C)(=O)=O)cc1)NC2=O [Compound 891, 4-{2-[2-(4-methanesulfonyl-phenyl)-4-oxo-1,3,8-triaza-spiro[4.5]dec-1-ene-8-sulfonyl]-ethyl}-3,N,N-trimethyl-benzamide] | 8.6%
10 | Cc1cc(C(=O)N2CCC(C)(O)CC2)cc(C)c1/C=C/[S@TB4](=O)(=O)N1CCC2(CC1)N=C(c1ccc(Cl)c(OC(F)(F)F)c1)NC2=O [Compound 1093, 2-(4-chloro-3-trifluoromethoxy-phenyl)-8-{(E)-2-[4-(4-hydroxy-4-methyl-piperidine-1-carbonyl)-2,6-dimethyl-phenyl]-ethenesulfonyl}-1,3,8-triaza-spiro[4.5]dec-1-en-4-one] | 100%
11 | Cc1cc(S(=O)(=O)NC2CCN(Cc3ccccc3)CC2)ccc1/C=C/S(=O)(=O)N1CCC2(CC1)N=C(c1cccc(OC(F)(F)F)c1)NC2=O [Compound 596, N-(1-Benzyl-piperidin-4-yl)-3-methyl-4-{(E)-2-[4-oxo-2-(3-trifluoromethoxy-phenyl)-1,3,8-triaza-spiro[4.5]dec-1-ene-8-sulfonyl]-vinyl}-benzenesulfonamide] | 40%
12 | Cc1cc(C(=O)N2CCC(C)(O)CC2)cc(C)c1/C=C/S(=O)(=O)N1CCC2(CC1)N=C(c1ccc3c(c1)OC(F)(F)O3)NC2=O [Compound 1163, 2-(2,2-Difluoro-benzo[1,3]dioxol-5-yl)-8-{(E)-2-[4-(4-hydroxy-4-methyl-piperidine-1-carbonyl)-2,6-dimethyl-phenyl]-ethenesulfonyl}-1,3,8-triaza-spiro[4.5]dec-1-en-4-one] | 101%
13 | Cc1cc(C(=O)N2CCC(C)(O)CC2)cc(C)c1/C=C/S(=O)(=O)N1CCC2(CC1)N=C(c1ccc(OCC(F)(F)F)c(C(F)(F)F)c1)NC2=O [Compound 1200, 8-{(E)-2-[4-(4-hydroxy-4-methyl-piperidine-1-carbonyl)-2,6-dimethyl-phenyl]-ethenesulfonyl}-2-[4-(2,2,2-trifluoro-ethoxy)-3-trifluoromethyl-phenyl]-1,3,8-triaza-spiro[4.5]dec-1-en-4-one] | 73%
14 | Cc1cccc(NCCO)c1/C=C/S(=O)(=O)N1CCC2(CC1)N=C(C1CCCCC1)NC2=O [Compound 200, 2-cyclohexyl-8-{(E)-2-[2-(2-hydroxy-ethylamino)-6-methyl-phenyl]-ethenesulfonyl}-1,3,8-triaza-spiro[4.5]dec-1-en-4-one] | 37%
15 | Cn1ccc2cccc(CCS(=O)(=O)N3CCC4(CC3)N=C(c3cccc(OC(F)(F)F)c3)NC4=O)c21 [Compound 308, 8-[2-(1-methyl-1H-indol-7-yl)-ethanesulfonyl]-2-(3-trifluoromethoxy-phenyl)-1,3,8-triaza-spiro[4.5]dec-1-en-4-one] | 72%
16 | CCCCCCCCCC1=NC2(CCN(S(=O)(=O)CCc3c(C)cc(C(=O)N4CCC4)cc3C)CC2)C(=O)N1 [Compound 982, 8-{2-[4-(azetidine-1-carbonyl)-2,6-dimethyl-phenyl]-ethanesulfonyl}-2-nonyl-1,3,8-triaza-spiro[4.5]dec-1-en-4-one] | 96%
17 | Cc1cc(C(=O)N2CCC(C)(O)CC2)cc(C)c1/C=C/S(=O)(=O)N1CCC2(CC1)N=C(c1ccc(C(F)(F)C(F)(F)F)cc1)NC2=O [Compound 1195, 8-{(E)-2-[4-(4-hydroxy-4-methyl-piperidine-1-carbonyl)-2,6-dimethyl-phenyl]-ethenesulfonyl}-2-(4-pentafluoroethyl-phenyl)-1,3,8-triaza-spiro[4.5]dec-1-en-4-one] | 82%
18 | O=C1NC(C2CCCCC2)=NC12CCN(S(=O)(=O)/C=C/c1cccc(F)c1C(F)(F)F)CC2 [Compound 185, 2-cyclohexyl-8-[(E)-2-(3-fluoro-2-trifluoromethyl-phenyl)-ethenesulfonyl]-1,3,8-triaza-spiro[4.5]dec-1-en-4-one] | 33%
19 | Cc1cc(C(=O)N(C)C)ccc1CCS(=O)(=O)N1CCC2(CC1)N=C(c1cccc(COC(C)C)c1)NC2=O [Compound 130, 4-{2-[2-(3-isopropoxymethyl-phenyl)-4-oxo-1,3,8-triaza-spiro[4.5]dec-1-ene-8-sulfonyl]-ethyl}-3,N,N-trimethyl-benzamide] | 65%
20 | CC1CCC(C2=NC3(CCN(S(=O)(=O)/C=C/c4cccc(C#N)c4)CC3)C(=O)N2)CC1 (stereo not shown) [Compound 209, 3-{(E)-2-[2-(4-Methyl-cyclohexyl)-4-oxo-1,3,8-triaza-spiro[4.5]dec-1-ene-8-sulfonyl]-vinyl}-benzonitrile] | 24%
21 | C=CCCCN(C)C(=O)c1ccc(CCS(=O)(=O)N2CCC3(CC2)N=C(c2cc(OCCC=C)cc(C(F)(F)F)c2)NC3=O)c(C)c1 [Compound 1405, 4-{2-[2-(3-But-3-enyloxy-5-trifluoromethyl-phenyl)-4-oxo-1,3,8-triaza-spiro[4.5]dec-1-ene-8-sulfonyl]-ethyl}-3,N-dimethyl-N-pent-4-enyl-benzamide] | 51%
22 | CN(C)C(=O)n1ccc2c(/C=C/S(=O)(=O)N3CCC4(CC3)N=C(C3CCCCC3)NC4=O)cccc21 [Compound 189, 4-[(E)-2-(2-cyclohexyl-4-oxo-1,3,8-triaza-spiro[4.5]dec-1-ene-8-sulfonyl)-vinyl]-indole-1-carboxylic acid dimethylamide] | 54%
23 | Cc1cc(NC[C@H](O)CO)ccc1CCS(=O)(=O)N1CCC2(CC1)N=C(c1ccc(C(F)(F)F)cc1)NC2=O [Compound 154, 8-{2-[4-((S)-2,3-Dihydroxy-propylamino)-2-methyl-phenyl]-ethanesulfonyl}-2-(4-trifluoromethyl-phenyl)-1,3,8-triaza-spiro[4.5]dec-1-en-4-one] | 82%
24 | CCCCCC[C@H]1CCCC[C@@H]1C1=NC2(CCN(S(=O)(=O)CCc3c(C)cc(N(C)C(N)=O)cc3C)CC2)C(=O)N1 [Compound 1057, 1-(4-{2-[2-((1S,2S)-2-hexyl-cyclohexyl)-4-oxo-1,3,8-triaza-spiro[4.5]dec-1-ene-8-sulfonyl]-ethyl}-3,5-dimethyl-phenyl)-1-methyl-urea] | 100%
25 | O=C1NC(C2CCCCC2)=NC12CCN(S(=O)(=O)c1cccs1)CC2 [Compound 56, 2-cyclohexyl-8-(thiophene-2-sulfonyl)-1,3,8-triaza-spiro[4.5]dec-1-en-4-one] | 55%
